Consider eight molecules from publication PMC9259647 (Scientific Reports, 2022).

Experiment [1] deals with T1, HXYN2 (Humicola insolens, UniProt P55334).
T1 construct: made in house; host or cells: Pichia pastoris GS115 (vector pHIL-D2), purified from culture supernatant
The experiment can be described thus: Effect of phenolic compounds on HXYN2 activity (DNS xylanase assay). Type of experiment: biochemical, Humicola grisea var. thermoidea. The following applies: for activating effect on HXYN2 activity: after 0 and 24 h of incubation.

The target in experiment [2] is T1, HXYN2. Put plainly: Isothermal titration calorimetry of HXYN2 with FA. The format is binding, Humicola grisea var. thermoidea. The method, then: An initial spacing setting of 500 s and an initial injection of 2 µL were employed. The following 12 injections of 5 µL were performed with an interval spacing of 600 s. The final 16 injections comprised 10 µL, with an interval spacing of 600 s.
The heat released after each injection was calculated from the raw data by integration of the peaks after subtraction of the baseline. The binding isotherms were fitted to different models using the software ORIGIN v7 (OriginLab, Northampton, MA, USA) provided by MicroCal. The best fit was determined using only two parameters, namely the binding constant (K) and enthalpy (H) on each site, following selction of the total number of sites. […] Changes in Gibbs free energy (ΔG) were calculated by Eq. (3):3 ΔG=-RTlnKa=ΔH-TΔS

For experiment [3], the target named is T1, HXYN2. The experiment can be described thus: Fluorescence quenching of HXYN2 by FA. Type of experiment: binding, Humicola grisea var. thermoidea. The following applies: range, acidic to basic pH. The method, then: HXYN2 in complex with FA was investigated by fluorescence quenching as a function of pH. Trp and Trp-Tyr emission measurements were performed at 25 °C, in triplicate, after excitation at 295 nm and 275 nm, respectively. Protein fluorescence emission was recorded in the range of 300 to 450 nm. A path length quartz cuvette of 1 cm and excitation and emission slit width of 5 nm were employed. Data intervals of 1 nm, gain medium, a response time of 2 s, and a scanning speed of 50 nm/min were used with two averaged spectra accumulations. Fluorescence quenching of 0.43 µM HXYN2 with 0 to 23.68 µM FA in 95% ethanol and 0.05 M of sodium acetate buffer at pH 4.0 and 0.05 M of Tris–HCl at pH 7.0 and pH 9.0 was performed using a Jasco ATS-443 Automatic titration (Jasco Analytical Instrument, Tokyo, Japan). The fluorescence intensity background and dilution were corrected. The Stern–Volmer linear regression (Eq. 4) of the relative […] of fluorescence intensity at 334 nm (F/F0) versus FA concentration was used to describe the fluorescence quenching of Trp accessible to the quencher[52]:4 F0/F=1+Kq∗τ0Q=1+KSVQ where F and F0 are the fluorescence intensities at 334 nm, in the presence and absence of FA, respectively, Q is the concentration of the quencher, and Ksv is the Stern–Volmer constant. […]

Experiment [4] relates to HXYN2. The experiment can be described thus: CD thermal unfolding of HXYN2 in the presence of FA. Also noted: species or system Humicola grisea var. thermoidea. The note with it: pH 6.0, FA 60 µM; 63.5 °C without FA. The method, then:
Thermostability assays of HXYN2 were performed at pH 4.0, 6.0, 7.0 and 9.0 at 218 nm, corresponding to the structured region of β-sheet, with temperature ranging from 25 to 95 °C and data collection of 0.2 °C/min. In addition, the CD spectra were recorded at a step size of 0.2 nm at intervals of 10 °C using the same parameters described above. Thermal denaturation curves were plotted considering the molar ellipticity values (θ) versus temperature. The unfolded status of the protein (Fu) was calculated by Eq. (6):6 Fu=yN-y/yN-yU where, yN and yU represent the values of y (into molar ellipticity) characteristic of the folded and unfolded states, respectively. The normalized unfolding curves were adjusted using the Boltzmann equation and the Origin 8.1 software (OriginLab Corporation, Northampton, MA, USA) from which the melting temperature (Tm) was estimated.
The effect of FA on the secondary structure content of HXYN2 was also investigated by CD. Assays were performed with protein at concentration of 0.15 mg/mL in 5 mM Bis–Tris pH 6.0 and FA at concentration of 60 µM. A quartz cuvette of 0.05 cm path length was used to record the Far-UV CD spectra in the range from 260 to 190 nm at 25 °C. Thermostability assays of HXYN2 in the presence of FA at pH 6.0 were also performed, using the same parameters described above.

Experiment [5] deals with HXYN2.
Experiment [6] relates to GH10 xylanase from Penicillium chrysogenum. On the set-up: method as in PMID 30654038. The note with it: oat spelt xylan as a substrate; cited from earlier work.
Experiment [7] relates to GH11 xylanase from Aspergillus tamarii. The following applies: birchwood xylan as a substrate; cited from earlier work.
The test system of experiment [8] is fungal cellulases and β-glucosidase. Also noted: method as in PMID 22112771. The following applies: cited from earlier work.

pKd: −log10 of the molar value. Where two headings read alike, the source gives them in different places.

T1 sequence (P55334 20-227): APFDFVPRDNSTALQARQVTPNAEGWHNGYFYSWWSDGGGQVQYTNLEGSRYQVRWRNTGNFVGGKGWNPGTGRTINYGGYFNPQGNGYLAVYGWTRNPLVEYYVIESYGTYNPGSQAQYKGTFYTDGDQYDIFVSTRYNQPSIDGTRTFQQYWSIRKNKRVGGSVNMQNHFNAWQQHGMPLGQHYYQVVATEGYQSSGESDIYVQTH

For the molecule `O=C(O)c1ccc(O)cc1` [4-hydroxybenzoic acid], on HXYN2 [1] (1 mg/mL), the “activating effect on HXYN2 activity” value is reported as 20–75%.
One may read the pKd as −log10 of the Kd, conventionally taken in molar units. Read a high pKd as a small Kd. A word on the Vmax: it is the top rate of the reaction or transport when substrate is in excess. The term kcat denotes the maximal rate divided by the concentration of active sites. As to `COc1cc(/C=C/C(=O)O)ccc1O` [FA, 3-(4-hydroxy-3-methoxy-phenyl-prop-2-enoic)], the “increase in enzymatic activity of HXYN2 in comparison to the control” value at HXYN2 [1] (1 mg/mL, 0 and 24 h of incubation, beechwood xylan) is 60–75%. The activation at 1000 µg/mL at HXYN2 [1] (24 h, read-out: activating effect on HXYN2, after 24 h of incubation) was roughly 75%; on HXYN2 [1] (read-out: activating effect on HXYN2 activity, 1 mg/mL, after 0 and 24 h of incubation), 20 to 75%; at HXYN2 [1] (read-out: increase in enzymatic activity of HXYN2 in comparison to the control, 1 mg/mL, 0 and 24 h of incubation, beechwood xylan), 75%. In addition, the negative logarithm of the Kd (pKd) at HXYN2 [2] (Kd, binding sites 2 and 4) was roughly 5.60; on HXYN2 [2] (dissociation constant (Kd), range over four sites), 5.63 to 7.17. In addition, at HXYN2 [2] (binding site 1, pH 6.0, 298 °K), the “K (binding constant)” value was 14.70 10^6 M^-1. The binding constant at HXYN2 [2] (binding sites 2 and 4) was ~ 0.4 × 10^6 M^−1. This molecule also displayed a Gibbs free energy at HXYN2 [2] (range over four sites) of −5.5 to −10.0 kcal/mol. Further, on HXYN2 [3], the “bimolecular quenching constant, Kq” value was 3.2e+11 to 6.5e+11 M⁻¹ s⁻¹. For the same molecule, the “Tm of HXYN2 in the presence of FA” value with HXYN2 [4] amounted to 54.1 °C. Also, the figures for the maximum rate (Vmax) in the experiment on HXYN2 [5] (FA 0.25 mg/mL), in the experiment with HXYN2 [5] (FA 0.5 mg/mL) and with HXYN2 [5] (FA 1 mg/mL) were 56.71 ± 1.11 µmol/min, 117.21 ± 1.26 µmol/min and 167.22 ± 8.12 µmol/min, respectively. Besides, the catalytic constant (kcat) with HXYN2 [5] (FA 0.25 mg/mL) was found to be 2.363 s⁻¹; with HXYN2 [5] (FA 0.5 mg/mL) it was 4.8837 s⁻¹; in the experiment on HXYN2 [5] (FA 1 mg/mL), 6.9678 s⁻¹.
Consider `O=C(O)c1cc(O)c(O)c(O)c1` [gallic acid], for which the “activating effect on HXYN2 activity” value on HXYN2 [1] (1 mg/mL) was 20–75%.
`O=C(O)/C=C/c1ccc(O)cc1` [p-coumaric acid]: the “activating effect on HXYN2 activity” value on HXYN2 [1] (1 mg/mL) is listed as 20–75%.
Still for that read-out and setting: then `COc1cc(C=O)cc(OC)c1O` [syringaldehyde], with 20–75%; and `O=C(O)/C=C/c1ccccc1` [trans-cinnamic acid], with 20–75%; and `COc1cc(C=O)ccc1O` [vanillin], with 20–75%.
Consider tannic acid, for which the “reduction in HXYN2 activity” value at HXYN2 [1] (1 mg/mL, pre-incubation 0 h) amounted to 26%; at HXYN2 [1] (1 mg/mL, pre-incubation 24 h) it was 59%. The “deactivating effect on HXYN2” value at HXYN2 [1] (after 24 h of incubation) is roughly 59%. Moreover, the inhibitory effect in experiment [6] is 17%. Further, the “increase in the activity” value in experiment [7] was 12%. Also, the inhibition entry in experiment [8] is “up to 80%”.
